According to PubChem BioAssay AID493102 (Broad Institute, 2011):

Tested on: SK-MEL-5 TRPM1-promoter luciferase reporter, 24 h
Assay: TRPM1 promoter luciferase signal decrease, dose response, MITF inhibitor project, cell-based, SK-MEL-5, cherry-picked, set 4 (AID 493102);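 also: actives lower the luciferase signal so the potency reflects inhibition of reporter expression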

N/C(=N\OC(=O)c1ccccc1Cl)c1ccccn1 was tested, and the AC50 was 8.87 µM.

Molecule C=CCNC1=C(Cl)C(=O)c2ccccc2C1=O has an AC50 of 4.06 µM.

N#CCc1ccc(NC(=O)/C=C/c2ccc([N+](=O)[O-])o2)cc1 gave an AC50 of 4.97 µM.

Molecule Cc1cc(C(=O)CCl)c(C)n1CCc1ccc(F)cc1 has an AC50 of 4.25 µM.

CN(C)c1nc(-c2ccccn2)nnc1-c1ccccc1 showed an AC50 of 6.17 µM.

CCOCCCNC(=O)/C(C#N)=C/c1ccc(Cl)c([N+](=O)[O-])c1 showed an AC50 of 7.38 µM.

Cc1ccc(NC(=O)c2ccc([N+](=O)[O-])s2)cc1S(=O)(=O)N1CCOCC1 gave an AC50 of 3.78 µM.

COc1ccc(-n2c(C)cc(C(=O)CCl)c2C)cc1 gave an AC50 of 6.44 µM.

With CC(=O)N(C1CC(C)C(C#N)(C#N)C1(C#N)C#N)N(C)C (centres undefined) the AC50 was 9.24 µM.

COc1ccc2nc(C)cc(SCC(=O)N/N=C/c3ccc(O)cc3O)c2c1 showed an AC50 of 10.1 µM.

Molecule COc1ccc2nc(N3CCN(C(=O)c4ccc([N+](=O)[O-])o4)CC3)sc2c1 has an AC50 of 5.81 µM.

C/C(=C\c1ccc(N(C)C)cc1)[N+](=O)[O-] was tested, and the AC50 was 13.1 µM.

For O=C(Nc1ccccc1N1CCOCC1)c1ccc([N+](=O)[O-])s1, the AC50 was 12.3 µM.

COc1cc(SC)ccc1C(=O)Nc1ccc(Br)cn1 showed an AC50 of 7.36 µM.

In the case of N=c1n(CC(=O)c2ccc(Br)cc2)c2ccccc2n1Cc1ccccc1, the AC50 is reported as 6.41 µM.

With CC(C)(C)c1ccc(-c2cn(-c3ccc(Br)cc3)c3[n+]2CCCS3)cc1 the AC50 was 3.2 µM.

C=CCn1c(C)cc(C(=O)Cn2ncc(Cl)c(Cl)c2=O)c1C showed an AC50 of 9.97 µM.

N=c1n(CC(=O)c2ccc(Br)s2)c2ccccc2n1Cc1ccccc1 was tested, and the AC50 was 7.34 µM.

With CCSC1(SCC)N=C(N)C2(C#N)C(c3ccc(F)cc3)C12C#N (centres undefined) the AC50 was 14 µM.

O=C(CNc1cccc2ccccc12)N/N=C/c1ccc([N+](=O)[O-])o1 gave an AC50 of 5.04 µM.

O=C(Nc1cccc(S(=O)(=O)N2CCCCC2)c1)c1ccc([N+](=O)[O-])o1 showed an AC50 of 11.9 µM.

In the case of O=[N+]([O-])c1ccc(/C=N/n2c(CO)nc3ccccc32)s1, the AC50 is reported as 1.98 µM.

With OCC1OC(n2cnc3c(NCc4ccco4)ncnc32)C(O)C1O (centres undefined) the AC50 was 3.88 µM.

CCOC(=O)c1ccc(NC(=O)c2ccc(C)c(S(=O)(=O)N3CCOCC3)c2)cc1 showed an AC50 of 5.36 µM.

Cc1ccc(-c2cn3nc(C)c(C)nc3n2)cc1 gave an AC50 of 5.3 µM.

CS(=O)(=O)c1ccc(C(=O)OCC(=O)NCc2cccs2)cc1[N+](=O)[O-] gave an AC50 of 11.7 µM.

In the case of CC(C)CC(=O)NC(c1cccs1)c1ccc2cccnc2c1O (centres undefined), the AC50 is reported as 3.71 µM.

O=[N+]([O-])c1ccc(-n2nnnc2-c2ccccc2)c([N+](=O)[O-])c1 gave an AC50 of 7.37 µM.

With c1ccc2cc3c(NCCN4CCOCC4)ccnc3cc2c1 the AC50 was 2.91 µM.

Cc1ccc(N2C(=O)NC(=O)/C(=C/C=C/c3ccco3)C2=O)cc1 was tested, and the AC50 was 5.97 µM.

O=C(O)c1ccc(N/N=C/c2ccc(OC(=O)c3cccc(Cl)c3)cc2)cc1 was tested, and the AC50 was 3.21 µM.

With C/C(=N\NC(=O)COc1ccccc1-c1ccccc1)c1ccccn1 the AC50 was 4.58 µM.

COc1ccc(/C=N/Nc2cc(C)nc(-n3nc(C)cc3C)n2)c(OC)c1 showed an AC50 of 10.4 µM.

With Cc1cc(C=C2C(=O)c3ccccc3C2=O)c(C)n1-c1ccccc1 the AC50 was 3.78 µM.

CCOC(=O)CSC1=NC(=O)/C(=C\c2ccc(OC(C)=O)cc2)S1 showed an AC50 of 5.13 µM.

In the case of CCCc1ccc(-c2ccc(/C=C/C(=O)O)cc2)nc1, the AC50 is reported as 0.039 µM.

CCN1/C(=C/c2cc[n+](C)cc2)C=Cc2cc(C)ccc21 gave an AC50 of 1.74 µM.

Molecule CCC(=O)N1CCN(c2ccc(NC(=O)c3ccc([N+](=O)[O-])o3)cc2)CC1 has an AC50 of 8.69 µM.

O=C(N/N=C\c1ccc([N+](=O)[O-])s1)c1cncc(Br)c1 showed an AC50 of 4.34 µM.

With CC(C)(C)c1ccc(C(=O)Nc2ccc(CC(=O)O)cc2)o1 the AC50 was 0.329 µM.

O=C1C=CC(=C(c2ccc(O)cc2)c2ccc(O)cc2)C=C1 showed an AC50 of 9.92 µM.

Cc1ccc(-c2c[n+](Cc3ccc(Cl)cc3)c3n2CCC3)cc1 gave an AC50 of 14.2 µM.

For Cc1cc(C(=O)CSc2nnc3ccccn23)c(C)n1-c1ccccc1, the AC50 was 2.08 µM.

In the case of CC[n+]1c(-c2ccccc2)c2cc(N)ccc2c2ccc(N)cc21, the AC50 is reported as 2.42 µM.

COc1ccc(O)c(/C=N/NC(=O)c2ccc(CSc3nc(C)cc(C)n3)cc2)c1 was tested, and the AC50 was 9.31 µM.

C=C1C(=O)C=C[C@]2(C)C[C@@H]3OC(=O)[C@](C)(O)[C@H]3C[C@@H]12 showed an AC50 of 10.3 µM.

O=C(N/N=C/c1cccc2cccnc12)c1ccccc1O showed an AC50 of 24.8 µM.

For Cc1cccc2sc(N(CCCN(C)C)C(=O)c3nc4ccccc4s3)nc12, the AC50 was 10.9 µM.

Work on FC(F)(F)c1cc(CCN2CCNC[C@@H]2Cc2ccccc2)cc(C(F)(F)F)c1 yielded an AC50 of 12.3 µM.

With COc1ccc2oc(C(=O)Nc3ccc(S(=O)(=O)N(C)C4CCN(C)CC4)cc3)c(C)c2c1 the AC50 was 13 µM.

C#CC(=O)N(c1ccc(OC)c(OC)c1)C(C(=O)NC1CCCC1)c1cccs1 (centres undefined) gave an AC50 of 3.31 µM.

In the case of CC(=O)c1cccc(NC(=O)/C=C/c2ccc([N+](=O)[O-])s2)c1, the AC50 is reported as 7.16 µM.

With CC1CCN(c2nc3ccc(C(=O)O)cc3s2)CC1 the AC50 was 1.25 µM.

O=C(CSCC(=O)Nc1ccccc1)N/N=C/c1c(O)ccc2ccccc12 showed an AC50 of 3.33 µM.

In the case of CCOc1cc(/C=C2/NC(=S)NC2=O)ccc1OCc1ccc([N+](=O)[O-])cc1, the AC50 is reported as 8.19 µM.

For CC(=O)Cn1ncc(Br)c(Br)c1=O, the AC50 was 15.8 µM.

With O=C(CSc1ccc(Cl)cc1)NC1CCCC1 the AC50 was 14.2 µM.

O=[N+]([O-])/C=C\c1ccc(N2CCCC2)c(F)c1 was tested, and the AC50 was 13.4 µM.

Molecule CC(Oc1cccc(Br)c1)C(=O)NNC(=O)c1ccccn1 (centres undefined) has an AC50 of 7.18 µM.

Work on Cc1ccc(C(=O)N/C(=C\c2ccc(-c3ccccc3[N+](=O)[O-])o2)C(=O)NCCN(C)C)cc1 yielded an AC50 of 4.87 µM.

For O=C(Nc1ccc(S(=O)(=O)NC2=NCCCCC2)cc1)c1ccc([N+](=O)[O-])s1, the AC50 was 5.11 µM.

CN(CCC#N)C(=O)COC(=O)c1ccccc1C(=O)c1ccc(Cl)c([N+](=O)[O-])c1 gave an AC50 of 10.9 µM.

In the case of CCCCCCCNC(=O)C1(CC2CC(c3ccc(Cl)cc3)=NO2)CCNCC1 (centres undefined), the AC50 is reported as 14 µM.

Molecule Cc1cccc(N2C(=O)NC(=O)/C(=C\C=C\c3ccco3)C2=O)c1 has an AC50 of 5.75 µM.

With Cc1ccccc1OCC(=O)N/N=C/c1ccc([N+](=O)[O-])o1 the AC50 was 8.22 µM.

CC(=O)Nc1ccc(Nc2c3ccccc3nc3ccccc23)cc1 was tested, and the AC50 was 4.9 µM.

For Cc1ccccc1-c1nc(-c2ccccn2)no1, the AC50 was 4.18 µM.

COc1ccc2nc(C)cc(NCc3cccc(C(F)(F)F)c3)c2c1 showed an AC50 of 18.2 µM.

In the case of CC1(C)CC(=O)C=C(NC2=CC3OC(c4ccccc4)OCC3OC2=O)C1 (centres undefined), the AC50 is reported as 7.71 µM.

In the case of CCCCN1CCc2c1nc1ccc(Br)cc1c2N, the AC50 is reported as 12.2 µM.

CCN1CCN(C2=C(NS(=O)(=O)c3ccc(Br)cc3)C(=O)c3ccccc3C2=O)CC1 was tested, and the AC50 was 5.71 µM.

Cn1nnnc1Sc1ncnc2scc(-c3cccs3)c12 was tested, and the AC50 was 7 µM.

For Cc1cccc(NC(=O)CNC(=O)Cn2ncc(Cl)c(Cl)c2=O)c1C, the AC50 was 13.4 µM.

In the case of Nc1nnnn1/N=C/C(Br)=C/c1ccccc1, the AC50 is reported as 5.44 µM.

O=C(NC1CCCC(C(F)(F)F)C1)c1ccc([N+](=O)[O-])o1 (centres undefined) was tested, and the AC50 was 11.2 µM.

With CCN(CC)CCC(=O)N1C/C(=C/c2ccccc2)C(=O)/C(=C\c2ccccc2)C1 the AC50 was 4.72 µM.

Molecule O=[N+]([O-])c1ccc(/C=N/n2cnc3ccccc32)s1 has an AC50 of 6.25 µM.

For CCSc1ccccc1C(=O)n1nnc2ccccc21, the AC50 was 11.8 µM.

Molecule CCN(CCO)c1ccc(N=Nc2cc(C)[nH]n2)cc1 has an AC50 of 3.6 µM.

Work on Oc1c(Cl)cc(Cl)cc1/C=N/Nc1ncc(Br)cn1 yielded an AC50 of 7.84 µM.

O=C(CCl)Nc1ccc(Sc2ccc(NC(=O)CCl)cc2)cc1 showed an AC50 of 5.98 µM.

COc1ccccc1N(C(=O)CCl)c1cn(C(C)=O)c2ccccc12 showed an AC50 of 8.82 µM.

In the case of CCN1c2ccccc2NC2N=C(OC)C(c3ccccc3)C21 (centres undefined), the AC50 is reported as 7.52 µM.

In the case of O=C(O)c1cccc(NC(=O)c2cccc(NC(=O)C3CCCO3)c2)c1 (centres undefined), the AC50 is reported as 21.2 µM.

CC(C)(C)c1ccc(-c2cc(N)n[nH]2)cc1 showed an AC50 of 0.511 µM.

C#CCCc1ccccc1/C=[N+](/C)[O-] showed an AC50 of 9.4 µM.

Molecule O=C(Nc1ccc2nc3n(c(=O)c2c1)CCCCC3)c1cc([N+](=O)[O-])ccc1F has an AC50 of 10.7 µM.

CC(C)N1C(=O)/C(=C/C=C/c2ccco2)C(=O)N(Cc2ccco2)C1=O was tested, and the AC50 was 9.97 µM.

O=C(N/N=C/c1ccccc1Cl)c1n[nH]c2c1CCCC2 gave an AC50 of 7.97 µM.

CCOc1c(Br)cc(CNC2CCCCCCC2)cc1OC showed an AC50 of 20.5 µM.

With Cc1cc(C)c2ccc(N)nc2c1O the AC50 was 9.58 µM.

For Cn1c(=O)c([N+](=O)[O-])c(-n2ccnc2)c2ccccc21, the AC50 was 6.6 µM.

Cc1ccc(NC2=C(Cl)C(=O)c3ccccc3C2=O)cc1 was tested, and the AC50 was 5.25 µM.

Cc1cc(C(=O)Nc2cccc(C(=O)O)c2)oc1C showed an AC50 of 4.35 µM.

Molecule COc1cc(C2C(C#N)=C(N)Oc3cc4c(cc32)OCO4)cc(OC)c1OC (centres undefined) has an AC50 of 0.365 µM.

Cc1ccccc1C(=O)N1CCN(c2ccc(NC(=O)c3ccc([N+](=O)[O-])o3)cc2)CC1 was tested, and the AC50 was 6.2 µM.

For CCOc1ccc2nc(NC3=NC(c4ccc(OC)cc4)CC(=O)N3)nc(C)c2c1 (centres undefined), the AC50 was 9.49 µM.

Molecule CCN1CCN(c2ccc(Nc3ccnc4ccccc34)cc2)CC1 has an AC50 of 12.3 µM.

COc1ccc(-c2cc(-c3ccccc3)[n+](C)c(-c3ccccc3)c2)cc1 was tested, and the AC50 was 3.2 µM.

O=C(Nc1ccc(OC(=O)N2CCCCC2)cc1)N1CCOCC1 gave an AC50 of 27.4 µM.

NC(=O)C1CCN(C2=C(NS(=O)(=O)c3ccc(Br)cc3)C(=O)c3ccccc3C2=O)CC1 was tested, and the AC50 was 11.9 µM.

Molecule CCC(C)(C)c1ccc(OCCCC[n+]2ccccc2)c(C(C)(C)CC)c1 has an AC50 of 4.35 µM.

Work on CC1(C)Cc2c(sc(NC(=O)c3ccc4ncsc4c3)c2C(N)=O)C(C)(C)N1 yielded an AC50 of 10.1 µM.

With CC(C)Oc1ccc(C(CCNCc2ccc(O)cc2)c2ccccc2)cc1 (centres undefined) the AC50 was 12.8 µM.

Cc1c(Cl)c([N+](=O)[O-])nn1Cc1ccc(C(=O)N/N=C\c2cc(Cl)ccc2O)o1 showed an AC50 of 3.47 µM.

CC1CCCC(NC(=O)NC(=O)CCl)C1C (centres undefined) was tested, and the AC50 was 12.4 µM.

O=C1NC(=S)NC(=O)C1=Cc1cccc2cc3ccccc3cc12 showed an AC50 of 4.81 µM.

With Cc1ccc(Cn2c(=N)n(CC(=O)c3ccc([N+](=O)[O-])cc3)c3ccccc32)cc1 the AC50 was 6.42 µM.

For O=C(CNc1cccc([N+](=O)[O-])c1)N/N=C/c1ccc([N+](=O)[O-])o1, the AC50 was 8.63 µM.

For O=S(=O)(c1ccc(F)cc1)c1snnc1-c1ccccc1, the AC50 was 15.1 µM.

Molecule CC(C)C(=O)N1CCN(c2ccc(NC(=O)c3ccc([N+](=O)[O-])o3)cc2)CC1 has an AC50 of 7.98 µM.

Molecule Cc1ccc2nc3cc([N+](=O)[O-])cc([N+](=O)[O-])c3cc2c1 has an AC50 of 8.46 µM.

O=[N+]([O-])c1ccc(Sc2cc[n+]([O-])c3ccccc23)c([N+](=O)[O-])c1 showed an AC50 of 5.92 µM.

CCN(CC)S(=O)(=O)c1ccc(NC(=O)c2cccnc2Cl)c(NC(=O)c2cccnc2Cl)c1 showed an AC50 of 7.03 µM.
